The supplement of paper PMC10307832

Columns and labels:
Assay in all cases: relative viability (nuclei count vs DMSO), 5 days (fraction); higher = more cells survive
Seliciclib = compound: CC[C@H](CO)Nc1nc(NCc2ccccc2)c2ncn(C(C)C)c2n1 [Seliciclib]
How it was run: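 Lung cancer cell lines received five library-drug doses (not always all listed) spaced by √10, pinned on vehicle-anchored 1536-well plates after an overnight stay at 37 °C. Five days later, with no medium change, nuclei were Hoechst-stained, imaged at 4× and counted with MetaXpress. Viability is treated-well nuclei relative to vehicle-well nuclei, as a median across plates. Passing plates had control CV below 25% and at least one doubling.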

Seliciclib + Trametinib = compound: CC[C@H](CO)Nc1nc(NCc2ccccc2)c2ncn(C(C)C)c2n1 [Seliciclib] + CC(=O)Nc1cccc(-n2c(=O)n(C3CC3)c(=O)c3c(Nc4ccc(I)cc4F)n(C)c(=O)c(C)c32)c1 [Trametinib] (partner 0.02 µM)
How it was run: (§1)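 Five library-drug doses in √10 steps were combined with a fixed anchor-drug dose, or a single drug was given alone, by pin tool to lung cancer cell lines in 1536-well plates the day after seeding. Nuclei were stained and counted after 5 days. Relative viability is the nuclei count in treated wells over that in vehicle wells, taken as the median of duplicate plates.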

Seliciclib + OSI-027 = compound: CC[C@H](CO)Nc1nc(NCc2ccccc2)c2ncn(C(C)C)c2n1 [Seliciclib] + COc1cccc2cc(-c3nc([C@H]4CC[C@H](C(=O)O)CC4)n4ncnc(N)c34)[nH]c12 [OSI-027] (partner 0.5 µM)
How it was run: as §1

Seliciclib + Phenformin = compound: CC[C@H](CO)Nc1nc(NCc2ccccc2)c2ncn(C(C)C)c2n1 [Seliciclib] + N=C(N)NC(=N)NCCc1ccccc1 [Phenformin] (partner 250 µM)
How it was run: as §1

Row | Cell Line | relative viability (Seliciclib; 0.08 µM) | relative viability (Seliciclib; 0.253 µM) | relative viability (Seliciclib; 0.8 µM) | relative viability (Seliciclib; 2.53 µM) | relative viability (Seliciclib; 8 µM) | relative viability (Seliciclib + Trametinib; first compound 0.08 µM) | relative viability (Seliciclib + Trametinib; first compound 0.253 µM) | relative viability (Seliciclib + Trametinib; first compound 0.8 µM) | relative viability (Seliciclib + Trametinib; first compound 2.53 µM) | relative viability (Seliciclib + Trametinib; first compound 8 µM) | relative viability (Seliciclib + OSI-027; first compound 0.08 µM) | relative viability (Seliciclib + OSI-027; first compound 0.253 µM) | relative viability (Seliciclib + OSI-027; first compound 0.8 µM) | relative viability (Seliciclib + OSI-027; first compound 2.53 µM) | relative viability (Seliciclib + OSI-027; first compound 8 µM) | relative viability (Seliciclib + Phenformin; first compound 0.08 µM) | relative viability (Seliciclib + Phenformin; first compound 0.253 µM) | relative viability (Seliciclib + Phenformin; first compound 0.8 µM) | relative viability (Seliciclib + Phenformin; first compound 2.53 µM) | relative viability (Seliciclib + Phenformin; first compound 8 µM)
1 | NCI-H1734 | 1.02 | 0.802 | 1.04 | 0.812 | 0.741 | 0.717 | 0.528 | 0.677 | 0.664 | 0.572 | 0.513 | 0.413 | 0.565 | 0.435 | 0.452 | 0.385 | 0.35 | 0.311 | 0.334 | 0.356
2 | NCI-H1755 | 1.01 | 0.995 | 0.951 | 0.99 | 0.989 | 0.804 | 0.658 | 0.757 | 0.776 | 0.71 | 0.633 | 0.714 | 0.738 | 0.515 | 0.691 | 0.601 | 0.6 | 0.586 | 0.584 | 0.599
3 | NCI-H1792 | 0.938 | 0.939 | 0.944 | – | 0.791 | 0.353 | 0.329 | 0.408 | – | 0.372 | 0.67 | 0.769 | 0.73 | – | 0.64 | 0.421 | 0.308 | 0.306 | – | 0.329
4 | NCI-H1793 | 0.86 | 0.771 | 0.785 | 0.859 | 0.764 | 0.364 | 0.433 | 0.461 | 0.411 | 0.291 | 0.299 | 0.219 | 0.252 | 0.194 | 0.238 | 0.378 | 0.307 | 0.378 | 0.32 | 0.227
5 | NCI-H1915 | 0.982 | 1.02 | 0.956 | 0.933 | 0.856 | 0.315 | 0.277 | 0.307 | 0.292 | 0.288 | 0.643 | 0.636 | 0.495 | 0.536 | 0.423 | 0.448 | 0.403 | 0.376 | 0.373 | 0.328
6 | NCI-H1944 | 0.983 | 0.947 | 0.898 | 0.73 | 0.707 | 0.399 | 0.277 | 0.428 | 0.48 | 0.368 | 0.442 | 0.343 | 0.376 | 0.26 | 0.341 | 0.188 | 0.22 | 0.168 | 0.178 | 0.168
7 | NCI-H1975 | 0.949 | 0.822 | 0.993 | 0.8 | 0.843 | 0.383 | 0.215 | 0.439 | 0.266 | 0.334 | 0.845 | 0.545 | 0.839 | 0.525 | 0.624 | 0.386 | 0.335 | 0.392 | 0.312 | 0.236
8 | NCI-H1993 | 0.979 | 0.761 | 0.884 | 0.723 | 0.633 | 0.649 | 0.543 | 0.47 | 0.508 | 0.43 | 0.574 | 0.529 | 0.521 | 0.556 | 0.518 | 0.551 | 0.54 | 0.496 | 0.474 | 0.456
9 | NCI-H2009 | 1.03 | 1.16 | 1.03 | 0.996 | 0.994 | 0.278 | 0.208 | 0.264 | 0.262 | 0.296 | 0.704 | 0.778 | 0.739 | 0.407 | 0.495 | 0.487 | 0.599 | 0.498 | 0.474 | 0.493
10 | NCI-H2023 | 0.989 | 0.956 | 0.964 | 0.857 | 0.725 | 0.542 | 0.457 | 0.501 | 0.447 | 0.264 | 0.418 | 0.304 | 0.396 | 0.188 | 0.323 | 0.41 | 0.417 | 0.411 | 0.468 | 0.312
11 | NCI-H2085 | 1.01 | 1.04 | 1.01 | 0.961 | 0.873 | 0.509 | 0.475 | 0.513 | 0.41 | 0.343 | 0.803 | 0.679 | 0.59 | 0.685 | 0.577 | 0.714 | 0.658 | 0.692 | 0.71 | 0.611
12 | NCI-H2087 | 1.03 | 1.08 | 0.956 | 0.836 | 0.791 | 0.202 | 0.203 | 0.217 | 0.145 | 0.196 | 0.617 | 0.533 | 0.497 | 0.273 | 0.432 | 0.537 | 0.495 | 0.411 | 0.41 | 0.385
13 | NCI-H2126 | 0.965 | 0.931 | 0.961 | 0.663 | 0.829 | 0.581 | 0.54 | 0.623 | 0.525 | 0.449 | 0.75 | 0.715 | 0.649 | 0.354 | 0.515 | 0.518 | 0.489 | 0.518 | 0.359 | 0.467
14 | NCI-H2170 | 0.93 | 0.697 | 0.897 | 0.997 | 0.946 | 0.85 | – | 0.884 | 0.927 | 0.888 | 0.754 | 0.639 | 0.724 | 0.691 | 0.708 | 0.393 | 0.489 | 0.354 | 0.436 | 0.411
15 | NCI-H2228 | 0.974 | 0.88 | 1.01 | 0.923 | 0.753 | 0.504 | 0.204 | 0.498 | 0.497 | 0.528 | 0.594 | 0.437 | 0.617 | 0.473 | 0.404 | 0.322 | 0.209 | 0.287 | 0.275 | 0.257
16 | NCI-H2342 | 0.967 | 0.74 | 0.947 | 0.842 | 0.905 | 0.705 | 0.598 | 0.865 | 0.752 | 0.887 | 0.565 | 0.657 | 0.581 | 0.505 | 0.574 | 0.606 | 0.54 | 0.533 | 0.496 | 0.521
